Here are results for six molecules from patent US20090004112A1, “METHODS FOR THE TREATMENT OF NEURODEGENERATIVE DISEASES USING NMDA RECEPTOR GLYCINE SITE ANTAGONISTS” (THE TRUSTEES OF COLUMBIA UNIVERSITY IN THE CITY OF NEW YORK, priority 2006, published 2009).

Assay [1] relates to wild-type LRRK2 overexpressing cells. Briefly: Process length in wild-type LRRK2 overexpressing primary cortical neurons. The class given is cell-based, rat. To be noted: 10 μM. The source says: FIGS. 8A-8B. […] N=25 for each group. […] N=10 for each group.
Cell Culture and Transfection.

For assay [2], the system named is PD-associated LRRK2 mutant. Briefly: Formation of LC3-GFP labeled aggregates in neurites / PD-associated LRRK2 pathology. The class given is cell-based. The source says:
A method is disclosed for treating a neurodegenerative disease, for example, Parkinson's Disease associated with a mutant of leucine-rich repeat kinase-2 (LRRK2), with NMDA antagonists. The methods include assessing accumulation of LC3-GFP labeled aggregates. The methods may be carried out on primary neurons in vitro in a cell culture, or in vivo in an animal. In one embodiment, the cell is a post-mitotic neuron. In another embodiment, the post-mitotic neuron is a cortical neuron, a dopamine neuron, or a sympathetic neuron.
Mutations in LRRK2 underlie an autosomal dominant, inherited form of Parkinson's disease (PD) that mimics all of the clinical features of the common sporadic form of PD. The LRRK2 protein includes putative GTPase, protein kinase, WD40 repeat, and leucine rich repeat (LRR) domains of unknown function.

Take `NC1(C(=O)O)CCC1` [1-aminocyclobutane carboxylic acid]: in assay [1], the “process length in wild-type LRRK2 overexpressing cells” value (“process length” below) was “do not alter process length”.
With `O=c1c(-c2cccc(Oc3ccccc3)c2)c(O)[nH]c2cc(Cl)ccc12` [L-701,324, 7-chloro-2-hydroxy-3-[3-(phenoxy)phenyl]-1H-quinolin-4-one], in assay [2], the “PD-associated LRRK2 pathology” value is on record as “ameliorated” and the “formation of LC3-GFP labeled aggregates in neurites” value is recorded as “ameliorated”.
For `N[C@@H](CCC(=O)N[C@@H](CS)C(=O)NCC(=O)O)C(=O)O` [glutathione], the “process length” value in assay [1] is given as “do not alter process length”.
For `Nc1ccccc1C(=O)CC(N)C(=O)O` (stereo not shown) [kynurenine], in assay [1], the “process length” value was “do not alter process length”.
Regarding `O=C1CC(c2ccccc2)Oc2ccccc21` (stereo not shown) [flavanone], the “process length” value in assay [1] is recorded as “do not alter process length”.
Same read-out and setting: to `Oc1ccc(O)cc1` [hydroquinone] belongs “do not alter process length”.
